From US20240307388A1, “FORMULATIONS FOR SUBSTITUTED 3-PYRROLIDINES, COMPOSITIONS CONTAINING, AND USES OF SAME” (LIPIDIO PHARMACEUTICALS, INC., priority 2016, published 2024)

How the values were obtained:
[1] = system: Human subcutaneous pre-adipocytes; experiment: Lipid accumulation in differentiating primary human adipocytes (AdipoRed); assay type: cell-based; details: Adipocyte, 144 h, six days, read-out: IC50, reduction in lipid accumulation
Method: Human subcutaneous pre-adipocytes (Zenbio (RTP, NC, U.S.A.)) were received pre-plated in white-walled 96-well plates. A schematic description of the protocol used for examining the effects of Compound A on lipid accumulation in differentiating human adipocytes is shown in FIG. 9. Upon arrival of cells (Day 1) 150 μL media in the wells was replaced with adipocyte differentiation media (Zenbio (RTP, NC, U.S.A.)). The following day media was replaced as described for Day 1. Media was subsequently replaced as described every two to three days. On Day 6, 150 μL of the adipocyte differentiation media was replaced with vehicle (0.1% DMSO), or the SCD1 inhibitors at the concentrations indicated. […] Cytotoxicity following incubation of adipocytes with Compound A was determined in separate wells, not used for Adipored™ staining, and was measured using CellTiter-Glo® (Promega (Madison, WI)) according to the manufacturer's instructions. Following a 10 min room temperature incubation the luminescence measured as relative light units (RLU) was determined in a luminescent plate reader. For adipocytes treated with concentrations of 1.2-100 nM Compound A for 6 days, cell viability as determined by RLU following CellTiter-Glo® remained greater than 75% of the value obtained with vehicle-treated adipocytes. […]

[2] = Analog solubility in TSAG3 gel vehicle (minus Carbopol); assay type: physicochemical; details: for Supernatant concentration Mean (N = 2-3) mg/g at RT after 4 days equilibration / Visual observation of sample after 4 days: TSAG3 gel vehicle minus 1% w/w Carbopol, 30 mg/g added, 20-23° C.
Method: In order to assess the compatibility with the modified TSAG3 gel formulation, several analogs were saturated in the gel components at room temperature (20-23° C.). The method used was as follows: Each analog at the equivalent of 30 mg/g was added to 500 microliters of the gel vehicle (minus the 1% w/w Carbopol as this made the gel too viscous) and allowed to equilibrate using a gently rotating, rotisserie sample holder that was allowed to come to equilibrium over 4 days. The samples were visually observed, filtered and diluted for analysis via HPLC in a concentrations range predetermined to be in a linear range for analyte detection. It is believed that Carbopol makes little difference to the equilibrium solubility at the 1% w/w level but may possibly prevent precipitation of super−saturated solutions of drug initially over 24-48 hours which is a further reason for taking it out to better assess the drug solubility in the remainder of the formulation.

[3] = system: mouse 3T3 L1 preadipocytes; experiment: Viability of mouse 3T3 L1 preadipocytes (Cell Titer Blue); assay type: cell-based; details: 10 μM
Method: Viability of mouse 3T3 L1 preadipocytes (ATCC, Mannassas, VA) cultured in a 96-well plate following treatment with 10 μM Compound A and analogs Compounds B, D, E, G and H was assessed using Cell Titer Blue (Promega (Madison, WI)) according to manufacturer's instructions. […] To evaluate how the efficacy of Compound A in reducing lipid accumulation altered with substrate availability, studies were performed in differentiating mouse 3T3-L1 pre-adipocytes using charcoal stripped serum to reduce substrate concentration and also with added exogenous palmitate as the substrate. 3T3-L1 cells were plated at 6000 cells/cm^2 and cultured until confluence at 37° C. in a humidified incubator in 95% air/5% CO2. Two days post-confluence pre-adipocyte differentiation was initiated using adipocyte differentiation medium containing DMEM with high glucose, 10% fetal bovine serum, insulin (1.7 μM), dexamethasone (1 μM), IBMX (0.5 mM), PPARy agonist Rosiglitazone, (1 μM) with penicillin and streptomycin with 10 nM compound A or vehicle (0.1% DMSO). Seventy two hours following the initiation of differentiation, media was replaced with adipocyte maintenance media containing DMEM with high glucose and insulin (1.7 μM) with 10 nM compound A or vehicle (0.1% DMSO) (FIG. 12). Serum composed of 100% FCS or that containing 20, 40, 60, 80 or 100% charcoal stripped serum (cFCS). For experiments where sodium palmitate was added the serum comprised of a 90:10 ratio of FCS:cFCS with 5.0 or 50 μM palmitate/bovine-serum albumin (BSA) complex. Sodium palmitate was conjugated to BSA for use in experiments and was prepared by dissolving to 100 mM in 200 proof ethanol. The palmitate was diluted to 20 mM with D-PBS. The palmitate was then further diluted 1:1 with 30% fatty acid free albumin and incubated overnight at 37° C. The solution was sterile filtered with a 0.22 micron syringe filter prior to treating cells. The BSA control was prepared in the same manner, without the fatty acid. For the studies in which palmitate was added the media additionally contained palmitate/BSA complex at the same concentration as that used during the differentiation stage. Following a further forty-eight hours or ninety-six hours of incubation (Day 6 or Day 8 respectively) the media was removed, wells rinsed with PBS, and 200 μL PBS was added. Five microliters of AdipoRed™ reagent was added to each well, mixed, and allowed to stand at room temperature for 10 mins. Triglyceride was quantitated in a fluorimeter (i3 SpectraMax, Molecular Devices) using ? ex 530 nm and ? em 590 nm to determine relative fluorescent units (RFU). Percent inhibition of triglyceride accumulation in Compound A treated 3T3-L1 adipocytes compared to those treated with vehicle under each condition was calculated by using the formula; % Triglyceride Compound A treated adipocytes=100*(RFU Compound A treated adipocytes/RFU vehicle treated adipocytes).

[4] = Cytotoxicity in mouse melanoma cells (CellTiter-Glo); assay type: cell-based; details: mouse, B16F10 mouse melanoma cells; B16F10, 48 h, representative experiment
Method: (§1) Mouse melanoma cells (B16F10) (American Type Culture Collection (ATCC), Manassas, VA) were cultured in Dulbecco's minimal essential media (DMEM) containing 10% fetal bovine serum, (Thermofisher, Waltham, MA). Cells were plated at a density of 5,000 cells per well into a 96-well plate and allowed to attach for 24 h in a 37° C. humidified incubator with a 5% CO2 atmosphere. Media was replaced with that containing test agents or vehicle (0.1% dimethylsulphoxide) and cells incubated for a further 48 h. Cell viability was assessed using CellTiter-Glo® (Promega).
(§2) An oleate-bovine serum albumin (BSA) conjugate was prepared by dissolving sodium oleate to 100 mM in methanol. The oleate was diluted to 20 mM with PBS and further diluted 1:1 with 30% fatty acid free albumin and incubated overnight at 37° C. The solution was sterile filtered prior to treating cells. The BSA control was prepared in the same manner, without the fatty acid. […] Non-linear regression analysis was performed using GraphPad PRISM®.

[5] = system: Mouse melanoma cells (B16F10); experiment: as above; assay type: cell-based; details: for effect of oleic acid on cytotoxicity: B16F10, oleic acid at 25 μM in the media
Method: as §1, §2

B16F10 cells = experiment: Melanin production in B16F10 melanoma cells; assay type: cell-based, mouse; details: 10 nM, 48 h
Method: B16F10 cells were plated at 150,000 cells per well into a 6-well plate and allowed to attach for 24 h in a 37° C. humidified incubator with a 5% CO2 atmosphere. Media was replaced with that containing test agents or vehicle (0.1% DMSO) and cells incubated for a further 48 h. Wells were washed once with PBS and cells removed by trypsinization and transferred to eppendorf tubes. Tubes were centrifuged at 1000 g for 10 minutes and the cell pellet resuspended in 0.5 mls PBS. Since compound A and analogs caused a reduction in cell viability the relative cell number per well was determined by taking an aliquot of the cell suspension in PBS and using CellTiter Glo® to determine the relative number of viable cells (Figure XX5). The PBS/cell suspension was centrifuged at 1000 g for 10 mins and the cell pellet resuspended in 1N NaOH/10% DMSO (v/v) and the tubes heated in a dry heating block at 80° C. with occasional vortexing to mix. In parallel a standard curve of melanin was prepared in 1N NaOH/10% DMSO using Sepia melanin (Sigma, St. Louis, MO) and standards also heated at 80° C. for 1 h. Samples and standards were centrifuged at 3000 g for 5 minutes and aliquots of the supernatant transferred to a 96-well plate for determination of melanin using Abs 475 nm. Melanin cellular content was interpolated from a standard curve and corrected based on the relative cell number in the sample.

[6] = system: HSC-1 human squamous carcinoma cells; experiment: Cytotoxicity in human squamous carcinoma cells (CellTiter-Glo); assay type: cell-based; details: HSC-1, 72 h, 1% FBS, representative experiment, read-out: EC50 (cell viability)
Method: The human skin squamous carcinoma line (HSC) (Japanese Collection of Research Bioresources Cell Bank (JCRB)) was cultured in Dulbecco's minimal essential media (DMEM) containing 20% fetal bovine serum (FBS), (Thermofisher, Waltham, MA). Cells were plated at a density of 5,000 cells per well into a 96-well plate and allowed to attach for 24 h in a 37° C. humidified incubator with a 5% CO2 atmosphere. Media was replaced with that containing test agents or vehicle (0.1% dimethylsulphoxide) in 1% FBS and cells incubated for a further 72 h. Cell viability was assessed using CellTiter-Glo® (Promega). Non-linear regression analysis was performed using GraphPad PRISM®.

Compound	IC50 [1]	Supernatant concentration Mean (N = 2-3) mg/g at RT after 4 days equilibration [2]	Visual observation of sample after 4 days [2]	cell viability compared to vehicle treated cells [3]	EC50 at 48 h [4]	effect of oleic acid on cytotoxicity [5]	melanin content (B16F10 cells)	EC50 [6]	solubility as % of Compound A solubility ([2]; TSAG3 gel vehicle minus Carbopol)	reduction of cell viability ([5]; B16F10, 48 h, up to 100 nM)
Cc1ccccc1O[C@H]1CCN(C(=O)COc2ccc(CO)cc2)C1 [Compound H]	56 nM	27.89 mg/g	Clear solution	No loss in cell viability	46 nM	prevented the cytotoxic effect	–	–	–	–
O=C(COc1ccc(CO)cc1)N1CC[C@H](Oc2ccccc2)C1 [Compound B]	–	28.46 mg/g	Clear solution	No loss in cell viability	–	–	–	–	–	–
O=C(COc1ccc(CO)cc1)N1CC[C@H](Oc2cccc(C(F)(F)F)c2)C1 [Compound D]	–	28.35 mg/g	Clear solution	No loss in cell viability	–	–	–	–	–	–
O=C(COc1ccc(CO)cc1)N1CC[C@H](Oc2ccccc2OC(F)(F)F)C1 [Compound G]	24.2 nM	28.78 mg/g	Clear solution	No loss in cell viability	4.3 nM	prevented the cytotoxic effect	increase in melanin	9.2 nM	–	–
O=C(COc1ccc(CO)cc1)N1CC[C@H](Oc2ccc(C(F)(F)F)cc2)C1 [Compound E]	–	23.18 mg/g	Visible precipitate	No loss in cell viability	–	–	–	–	about 77%	did not reduce the viability
